Laboratory results as given in patent US4676822A, “Fluid fertilizers containing thiophosphoryl triamide” (Tennessee Valley Authority, priority 1986, dated 1987).
Where “and” joins values, the source holds several entries; their conditions need not be identical. Equal entries are not always repeated.

Tests used:
urease = conditions: prior art; cited from earlier work
[1] = Stability of TPTA in 40 wt % urea solution (HPLC); type: physicochemical; conditions: 25° C.; for % original TPTA remaining: 40 wt % urea solution
Description: A 40 weight percent urea solution (initial pH=8.5) was prepared by dissolving 80 g of urea in 120 g of water. A sample containing 1 weight percent TPTA was prepared by dissolving 1 g of TPTA in 99 g of the 40 weight percent urea solution. The sample was maintained at room temperature (25° C.) and analyzed periodically for TPTA by HPLC. The results of this kinetic study are given in Table IV infra and as noted supra plotted in FIG. 3 along with the first-order rate equation (solid line FIG. 3) which was determined by linear regression.

[2] = Stability of TPTA in UAN (31-0-0) at 25° C. (HPLC); type: physicochemical; conditions: for % original TPTA remaining: UAN (31-0-0)
Description: A sample containing 1 weight percent TPTA was prepared by dissolving 1 g of TPTA in 99 g of 31-0-0 having the composition given in Table I, supra, and an initial pH of 8.1. The sample was maintained at room temperature (25° C.) and analyzed periodically for TPTA by HPLC. The results of the kinetic study are given in Table V infra and as noted supra plotted in FIG. 4 along with the first-order rate equation (solid line in FIG. 4) which was determined by linear regression.

SMILES: NP(N)(N)=S [TPTA, thiophosphoryl triamide]
- urease inhibition (in words) (urease): comparable and in some cases more effective than PPDA
- reaction half-life in 40 weight percent urea solution ([1]; 1 wt % TPTA, initial pH 8.5, first-order): 168 days
- % original TPTA remaining ([1]; time 0.00 days): 100.00%
- % original TPTA remaining ([1]; time 9.04 days): 94.96%
- % original TPTA remaining ([1]; time 9.25 days): 94.83%
- % original TPTA remaining ([1]; time 10.21 days): 93.97%
- % original TPTA remaining ([1]; time 13.05 days): 94.25%
- % original TPTA remaining ([1]; time 14.99 days): 89.47%
- % original TPTA remaining ([1]; time 17.22 days): 88.78%
- % original TPTA remaining ([1]; time 20.27 days): 91.44%
- % original TPTA remaining ([1]; time 22.12 days): 87.44%
- % original TPTA remaining ([1]; time 24.07 days): 88.80%
- % original TPTA remaining ([1]; time 29.19 days): 87.81%
- % original TPTA remaining ([1]; time 31.23 days): 87.90%
- % original TPTA remaining ([1]; time 34.23 days): 88.52%
- % original TPTA remaining ([1]; time 36.03 days): 86.26%
- % original TPTA remaining ([1]; time 38.19 days): 91.36%
- % original TPTA remaining ([1]; time 41.19 days): 88.11%
- % original TPTA remaining ([1]; time 43.10 days): 78.25%
- % original TPTA remaining ([1]; time 45.07 days): 79.73%
- % original TPTA remaining ([1]; time 48.04 days): 76.59%
- % original TPTA remaining ([1]; time 50.20 days): 78.68%
- % original TPTA remaining ([1]; time 52.00 days, 74880 min): 76.66% and 76.56%
- % original TPTA remaining ([1]; time 56.04 days): 76.52%
- % original TPTA remaining ([1]; time 62.02 days): 76.02%
- % original TPTA remaining ([1]; time 76.14 days, 109642 min): 76.78%
- % original TPTA remaining ([1]; time 83.11 days, 119678 min): 70.05%
- % original TPTA remaining ([1]; time 97.06 days, 139766 min): 65.19%
- reaction half-life in the 31-0-0 solution ([2]; 1 wt % TPTA, initial pH 8.1, first-order): 93 days
- % original TPTA remaining ([2]; time 0.00 days): 100.00%
- % original TPTA remaining ([2]; time 1.22 days): 100.00%
- % original TPTA remaining ([2]; time 5.22 days): 97.60%
- % original TPTA remaining ([2]; time 7.13 days): 100.00%
- % original TPTA remaining ([2]; time 9.09 days): 99.55%
- % original TPTA remaining ([2]; time 12.07 days): 101.78%
- % original TPTA remaining ([2]; time 14.22 days): 100.47%
- % original TPTA remaining ([2]; time 16.01 days, 23054.4 min): 95.59% and 95.43%
- % original TPTA remaining ([2]; time 20.05 days): 89.05%
- % original TPTA remaining ([2]; time 26.05 days): 95.55%
- % original TPTA remaining ([2]; time 40.17 days): 79.49%
- % original TPTA remaining ([2]; time 47.14 days): 79.62%
- % original TPTA remaining ([2]; time 61.08 days): 74.35%
- % original TPTA remaining ([2]; time 64.99 days): 63.03%
- % original TPTA remaining ([2]; time 71.70 days): 68.55%
- % original TPTA remaining ([2]; time 82.71 days, 119102 min): 43.85%
- % original TPTA remaining ([2]; time 90.71 days, 130622 min): 52.17%
- % original TPTA remaining ([2]; time 96.75 days): 51.55%
- % original TPTA remaining ([2]; time 103.71 days): 52.04%
- % original TPTA remaining ([2]; time 111.71 days): 47.46%
